One compound from article PMC9909315, “SY-707, an ALK/FAK/IGF1R inhibitor, suppresses growth and metastasis of breast cancer cells” (Acta Biochimica et Biophysica Sinica, 2022) can be followed below.

The subject of test [1] is phosphorylation of Pyk2 at Tyr402. The test can be described thus: Western blot of Pyk2 phosphorylation in T47D cells. The class given is cell-based. Conditions: 1 h treatment. As for the experimental part: Equal amounts of cell lysates were loaded onto 10% SDS-PAGE gel and separated by electrophoresis. Separated proteins were then electro-transferred onto polyvinylidene fluoride (PVDF) membranes (Millipore, Bedford, USA). After being blocked with Tris-buffered saline containing 0.1% Tween-20 (TBST) and 5% bovine serum albumin (BSA), the membranes were incubated with primary antibodies at room temperature for 2 hours or at 4°C, then washed with TBST, followed by treatment with horseradish peroxidase (HRP)-conjugated goat anti-rabbit IgG secondary antibody at room temperature for another 1 h. The targeted protein bands were visualized using an enhanced chemiluminescence (ECL) plus system (Thermo Fisher Scientific). […]
Figure4 Inhibitory effects of SY-707 on the phosphorylation of FAK(A,B) Concentration-dependent inhibition of SY-707 on phosphorylation of FAK in T47D (A) and MCF-7 (B) cells. […] Cell lysates were analyzed by western blot analysis using specific antibodies against p-FAK, p-Pyk2, p-AKT and p-ERK respectively. […] Cell lysates were analyzed by western blot analysis using specific antibodies against p-IGF1R, p-STAT3, p-AKT and p-ERK respectively.

Test [2] deals with FAK, Pyk2, LTK, IRK and IGF1R. In words: HTRF kinase enzyme assay, summary over several kinases. The format is biochemical. The conditions noted are these: around; span over the named kinases. As for the experimental part: Homogeneous time-resolved fluorescence (HTRF) assay was performed to analyze kinase enzyme activity and compound potency using HTRF ® KinEASE ^TM-TK kit (Cisbio Bioassays, Shanghai, China). Compound SY-707 was serially diluted by 3 folds from 1 mM stock solution in DMSO, and 4 μL of the diluted solution of the compounds was added to 96 μL of reaction buffer (50 mM HEPES, pH 7.0, 0.1 mM Na 3VO 4, 0.01% BAS, 5 mM MgCl 2, 1 mM DTT), then 2.5 μL of 4× compound solution and 5 μL of 2× kinases solution were added to a 384-well plate (OptiPlate-384; PerkinElmer, Wellesley, USA ). The resulted solutions were briefly mixed, centrifuged and incubated for 5 min. Finally, 2.5 μL of 4× ATP/TK peptide (ATP at K m for each kinase) solution was added to the reaction system to initiate the reaction. The enzymatic reaction was carried out for 60-120 min at 23°C, then terminated by addition of 5 μL of detection solution containing TK antibody-cryptate and 5 μL of Streptravidin-XL-665. The mixture was incubated for additional 1 h at 23°C. The fluorescent signals were measured with an EnVision multilabel plate reader (PerkinElmer). IC 50 values of the compounds were calculated using the GraFit software (Version 6.0) and presented as the mean of three independent experiments performed in duplicate.

For the next test, the system named is HT29. The test can be described thus: Cell proliferation assay (CellTiter-Glo/CellTiter-Blue). The class given is cell-based. The conditions noted are these: Homo sapiens, HT-29, 72 h, read-out: IC50 anti-proliferation. As for the experimental part: (§1) MCF-7, T47D, MDA-MB-231, MIA Paca-2, PANC-1, SW620, HT-29, U87MG, and A549 cell lines were purchased from the Cell Bank of Chinese Academy of Science (Shanghai, China). Cells were cultured in DMEM or RPMI-1640 (Gibco, BRL, USA) supplemented with 10% FBS (HyClone, Logan, USA) and 50 IU penicillin/streptomycin in a humidified atmosphere with 5% CO 2 at 37°C. The effects of SY-707 on cell proliferation were measured using CellTiter-Glo ® or CellTiter-Blue ® Cell Viability Assay kits (Promega, Beijing, China). In brief, cells were seeded in 96-well plates at low destiny with 195 μL of medium per well. The stock solutions of compounds were 3-fold serially diluted with DMSO from 10 mM to 0.3 nM, and 4 μL of solution at each concentration was mixed with 96 μL of serum free medium, then 5 μL of the resulted solution was added to each well. After treatment for 72 h, 25 μL of CellTiter-Glo ® reagent (for adherent cells) or 35 μL CellTiter-Blue ® reagent (for suspension cells) was added to each well, and the resulted mixture was further incubated at room temperature for 10 min or 4 h. The luminescence signals were measured using EnVision ® multilabel plate reader (PerkinElmer), and the fluorescent signals were examined using FlexStation 3 (Molecular Devices, Sunnyvale, USA), and the IC 50 values were calculated using Prism ® software (Version 5.0) and presented as the average of three independent experiments performed in duplicate.

The next test concerns MCF-7. The test is described as above. The format is cell-based. The conditions noted are these: Homo sapiens, MCF7, 72 h, read-out: IC50 anti-proliferation. As for the experimental part: as §1
For the next test, the system named is SW620. Described as above. Conditions: Homo sapiens, SW-620, 72 h, read-out: IC50 anti-proliferation. The format is cell-based. As for the experimental part:
as §1

In a further test the test system is T47D. Described as above. The class given is cell-based. Conditions: Homo sapiens, 72 h, read-out: IC50 anti-proliferation. The protocol:
as §1

The next test deals with A549. The test is described as above. The class given is cell-based. Conditions: Homo sapiens, A549, 72 h, read-out: IC50 anti-proliferation. The protocol: as §1
A further test concerns MDA-MB-231. Described as above. The format is cell-based. Conditions: Homo sapiens, MDA-MB-231, 72 h, read-out: IC50 anti-proliferation. As for the experimental part: as §1
The test system of the next test is MIA PACA-2. The test is described as above. The class given is cell-based. The conditions noted are these: Homo sapiens, MIA PaCa-2, 72 h, read-out: IC50 anti-proliferation. As for the experimental part: as §1
In another test the test system is PANC-1. The description is as above. The format is cell-based. Conditions: Homo sapiens, PANC-1, 72 h, read-out: IC50 anti-proliferation. As for the experimental part: as §1
Another test has as its system U87MG. Described as above. The class given is cell-based. Conditions: Homo sapiens, U-87 MG, 72 h, read-out: IC50 anti-proliferation. The protocol: as §1

Structures are written as SMILES. pIC50: −log10 of the molar value.

Consider `COc1cc(N2CCC(N3CCN(C)CC3)CC2)ccc1Nc1nc2c(c(Nc3ccccc3S(=O)(=O)NC(C)C)n1)CCN2` [SY-707, N-isopropyl-2-((2-((2-methoxy-4-(4-(4-methylpiperazin-1-yl)piperidin-1-yl)phenyl)amino)-6,7-dihydro-5H-pyrrolo[2,3-d]pyrimidin-4-yl)amino)benzenesulfonamide], for which the “phosphorylation of Pyk2 at Tyr402” value in test [1] is “dose-dependently suppressed”. Further, the pIC50 in test [2] is 8.00 to 9.00; in the test on HT29 it was 6.22; in the test on MCF-7, 6.23; with SW620, 6.09; with T47D, 5.74; with A549 it was 5.24. Besides, the pIC50 in the test on MDA-MB-231 is 5.72; with MIA PACA-2 it was 5.89; in the test on PANC-1 it was 5.92; in the test with U87MG, less than 5.00.
